Source: the NIST ThermoML archive (doi:10.1016/j.fluid.2011.01.007)
Numbers after ± are expanded uncertainties.

Columns and labels:
[1] = 298.15 K; 101.33 kPa; Liquid; Vibrating tube method
[2] = refractive index (Na D-line) (dimensionless); details: 298.15 K; 101.33 kPa; Liquid; Standard Abbe refractometry
[3] = xn = mol fraction of the nth substance listed; details: 298.15 K, 101 kPa, Liquid, Vibrating tube method
[4] = refractive index (Na D-line) (dimensionless); xn = mol fraction of the nth substance listed; details: 298.15 K, 101 kPa, Liquid, Standard Abbe refractometry

Cc1ccccc1 [toluene]
Details | mass density [kg/m3] | refractive index
[1] | 862.19 ± 0.42 | –
[2] | – | 1.49397 ± 0.00037

c1ccccc1 [benzene]
Details | mass density [kg/m3] | refractive index
[1] | 873.57 ± 0.43 | –
[2] | – | 1.49764 ± 0.00037

CCO [ethanol]
Details | mass density [kg/m3] | refractive index
[1] | 785.33 ± 0.39 | –
[2] | – | 1.35928 ± 0.00033

COC(=O)OC [dimethyl carbonate] + c1ccccc1
Details | mass density, [3] [kg/m3] | refractive index, [4]
x1 = 0.0518 | 882.09 ± 0.1 | 1.4902 ± 0.0004
x1 = 0.0988 | 889.99 ± 0.09 | 1.4836 ± 0.0004
x1 = 0.1995 | 907.42 ± 0.09 | 1.4699 ± 0.0004
x1 = 0.2994 | 925.15 ± 0.08 | 1.4565 ± 0.0004
x1 = 0.401 | 943.6 ± 0.08 | 1.4431 ± 0.0004
x1 = 0.5002 | 962.07 ± 0.08 | 1.4301 ± 0.0004
x1 = 0.6003 | 981.15 ± 0.07 | 1.417 ± 0.0004
x1 = 0.699 | 1000.51 ± 0.07 | 1.4044 ± 0.0004
x1 = 0.7981 | 1020.48 ± 0.08 | 1.3918 ± 0.0003
x1 = 0.9 | 1041.49 ± 0.08 | 1.3789 ± 0.0003
x1 = 0.9497 | 1052 ± 0.09 | 1.3727 ± 0.0003

COC(=O)OC [dimethyl carbonate]
Details | mass density [kg/m3] | refractive index
[1] | 1063.04 ± 0.51 | –
[2] | – | 1.36654 ± 0.00033

COC(=O)OC [dimethyl carbonate] + Cc1ccccc1
Details | mass density, [3] [kg/m3] | refractive index, [4]
x1 = 0.0496 | 869.6 ± 0.1 | 1.4883 ± 0.0004
x1 = 0.0998 | 877.39 ± 0.1 | 1.4827 ± 0.0004
x1 = 0.2001 | 893.69 ± 0.09 | 1.4715 ± 0.0004
x1 = 0.3003 | 910.85 ± 0.09 | 1.4597 ± 0.0004
x1 = 0.3998 | 928.88 ± 0.08 | 1.4475 ± 0.0004
x1 = 0.5002 | 948 ± 0.08 | 1.4352 ± 0.0004
x1 = 0.5999 | 968.16 ± 0.08 | 1.4224 ± 0.0004
x1 = 0.6999 | 989.62 ± 0.07 | 1.4091 ± 0.0004
x1 = 0.7998 | 1012.35 ± 0.08 | 1.3954 ± 0.0003
x1 = 0.8988 | 1036.61 ± 0.08 | 1.3814 ± 0.0003
x1 = 0.9487 | 1049.29 ± 0.09 | 1.3741 ± 0.0003
